Source: the supplement of paper PMC4862054

system: HCC1937; assay: normalised response (% of control), CellTiter-Glo; higher = more viable cells (100 = DMSO, 0 = benzethonium chloride kill control); conditions: incubation time: 72 h
Description: (§1)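 DSRT, 72 h incubation, CellTox Green / CellTiter-Glo readout. Signal is normalised to DMSO and benzethonium chloride controls. Value is the normalised response at dose 3.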

Question: O=C(O)C(=O)O.[NH-][C@@H]1CCCC[C@H]1[NH-].[Pt+2] [Oxaliplatin] (100 nM) was tested. Which normalised response did it give?
Answer: 93.1%

Question: With CC1=C(/C=C/C(C)=C/C=C/C(C)=C/C(=O)O)C(C)(C)CCC1 [Tretinoin] (100 nM) as the molecule, how does the normalised response read?
Answer: 95.8%

Question: For Oc1ncc(N(CCCl)CCCl)c(O)n1 [Uracil mustard] (100 nM), which normalised response is on record?
Answer: 98%

Question: Which normalised response does the source give for COc1cc2c(NC3CCN(C(C)C)CC3)nc(C3CCCCC3)nc2cc1OCCCN1CCCC1 [UNC0638] (100 nM) here?
Answer: 92.2%

Question: With COc1cc([C@@H]2c3cc4c(cc3[C@@H](O[C@@H]3O[C@@H]5CO[C@@H](c6cccs6)O[C@H]5[C@H](O)[C@H]3O)[C@H]3COC(=O)[C@H]23)OCO4)cc(OC)c1O [Teniposide] (100 nM) as the molecule, how does the normalised response read?
Answer: 91.9%

Question: Which normalised response does the source give for CC[C@H](C)C(=O)O[C@H]1C[C@H](O)C=C2C=C[C@H](C)[C@H](CC[C@@H](O)C[C@@H](O)CC(=O)O)[C@H]21 [Pravastatin] (100 nM) here?
Answer: 93.7%

Question: With C[C@H]1C[C@@H]2[C@H]([C@@H](O)C[C@@]3(C)[C@H]2CC[C@]3(O)C(=O)CO)[C@@]2(C)C=CC(=O)C=C12 [Methylprednisolone] (100 nM) as the molecule, how does the normalised response read?
Answer: 98.3%

system: MCF-10A; assay: as above; conditions: incubation time: 72 h
Description: as §1

Question: How did the normalised response turn out when CCc1cncnc1N1CCN(Cc2nc3ccc(C(F)(F)F)cc3[nH]2)CC1 (100 nM) was run?
Answer: 108%

Question: With COc1cc2nccc(Oc3ccc(NC(=O)Nc4cc(C)on4)c(Cl)c3)c2cc1OC [Tivozanib] (100 nM) as the molecule, how does the normalised response read?
Answer: 94.5%

Question: With O=C(O)C(=O)O.[NH-][C@@H]1CCCC[C@H]1[NH-].[Pt+2] [Oxaliplatin] (100 nM) as the molecule, how does the normalised response read?
Answer: 97.5%

Question: CC1=C(/C=C/C(C)=C/C=C/C(C)=C/C(=O)O)C(C)(C)CCC1 [Tretinoin] (100 nM) was tested. Which normalised response did it give?
Answer: 88.7%

Question: For Oc1ncc(N(CCCl)CCCl)c(O)n1 [Uracil mustard] (100 nM), which normalised response is on record?
Answer: 101%

Question: With COc1cc2c(NC3CCN(C(C)C)CC3)nc(C3CCCCC3)nc2cc1OCCCN1CCCC1 [UNC0638] (100 nM) as the molecule, how does the normalised response read?
Answer: 88%

Question: For COc1cc([C@@H]2c3cc4c(cc3[C@@H](O[C@@H]3O[C@@H]5CO[C@@H](c6cccs6)O[C@H]5[C@H](O)[C@H]3O)[C@H]3COC(=O)[C@H]23)OCO4)cc(OC)c1O [Teniposide] (100 nM), which normalised response is on record?
Answer: 88.2%

Question: With CC[C@H](C)C(=O)O[C@H]1C[C@H](O)C=C2C=C[C@H](C)[C@H](CC[C@@H](O)C[C@@H](O)CC(=O)O)[C@H]21 [Pravastatin] (100 nM) as the molecule, how does the normalised response read?
Answer: 97.4%

Question: With C[C@H]1C[C@@H]2[C@H]([C@@H](O)C[C@@]3(C)[C@H]2CC[C@]3(O)C(=O)CO)[C@@]2(C)C=CC(=O)C=C12 [Methylprednisolone] (100 nM) as the molecule, how does the normalised response read?
Answer: 106%

system: HCC1599; assay: as above; conditions: incubation time: 72 h
Description: as §1

Question: Which normalised response does the source give for CCc1cncnc1N1CCN(Cc2nc3ccc(C(F)(F)F)cc3[nH]2)CC1 (100 nM) here?
Answer: 99.9%

Question: For COc1cc2nccc(Oc3ccc(NC(=O)Nc4cc(C)on4)c(Cl)c3)c2cc1OC [Tivozanib] (100 nM), which normalised response is on record?
Answer: 102%

Question: For O=C(O)C(=O)O.[NH-][C@@H]1CCCC[C@H]1[NH-].[Pt+2] [Oxaliplatin] (100 nM), which normalised response is on record?
Answer: 93%

Question: With CC1=C(/C=C/C(C)=C/C=C/C(C)=C/C(=O)O)C(C)(C)CCC1 [Tretinoin] (100 nM) as the molecule, how does the normalised response read?
Answer: 103%

Question: With Oc1ncc(N(CCCl)CCCl)c(O)n1 [Uracil mustard] (100 nM) as the molecule, how does the normalised response read?
Answer: 95.5%

Question: COc1cc2c(NC3CCN(C(C)C)CC3)nc(C3CCCCC3)nc2cc1OCCCN1CCCC1 [UNC0638] (100 nM) was tested. Which normalised response did it give?
Answer: 80.8%

Question: COc1cc([C@@H]2c3cc4c(cc3[C@@H](O[C@@H]3O[C@@H]5CO[C@@H](c6cccs6)O[C@H]5[C@H](O)[C@H]3O)[C@H]3COC(=O)[C@H]23)OCO4)cc(OC)c1O [Teniposide] (100 nM) was tested. Which normalised response did it give?
Answer: 66.7%

Question: With CC[C@H](C)C(=O)O[C@H]1C[C@H](O)C=C2C=C[C@H](C)[C@H](CC[C@@H](O)C[C@@H](O)CC(=O)O)[C@H]21 [Pravastatin] (100 nM) as the molecule, how does the normalised response read?
Answer: 88.7%

Question: Which normalised response does the source give for C[C@H]1C[C@@H]2[C@H]([C@@H](O)C[C@@]3(C)[C@H]2CC[C@]3(O)C(=O)CO)[C@@]2(C)C=CC(=O)C=C12 [Methylprednisolone] (100 nM) here?
Answer: 97.9%

system: DU-4475; assay: as above; conditions: incubation time: 72 h
Description: as §1

Question: For CCc1cncnc1N1CCN(Cc2nc3ccc(C(F)(F)F)cc3[nH]2)CC1 (100 nM), which normalised response is on record?
Answer: 106%

Question: Which normalised response does the source give for COc1cc2nccc(Oc3ccc(NC(=O)Nc4cc(C)on4)c(Cl)c3)c2cc1OC [Tivozanib] (100 nM) here?
Answer: 98.1%

Question: How did the normalised response turn out when O=C(O)C(=O)O.[NH-][C@@H]1CCCC[C@H]1[NH-].[Pt+2] [Oxaliplatin] (100 nM) was run?
Answer: 92.5%

Question: For CC1=C(/C=C/C(C)=C/C=C/C(C)=C/C(=O)O)C(C)(C)CCC1 [Tretinoin] (100 nM), which normalised response is on record?
Answer: 98.3%

Question: How did the normalised response turn out when Oc1ncc(N(CCCl)CCCl)c(O)n1 [Uracil mustard] (100 nM) was run?
Answer: 99.1%

Question: For COc1cc2c(NC3CCN(C(C)C)CC3)nc(C3CCCCC3)nc2cc1OCCCN1CCCC1 [UNC0638] (100 nM), which normalised response is on record?
Answer: 86.5%

Question: With COc1cc([C@@H]2c3cc4c(cc3[C@@H](O[C@@H]3O[C@@H]5CO[C@@H](c6cccs6)O[C@H]5[C@H](O)[C@H]3O)[C@H]3COC(=O)[C@H]23)OCO4)cc(OC)c1O [Teniposide] (100 nM) as the molecule, how does the normalised response read?
Answer: 69.2%

Question: CC[C@H](C)C(=O)O[C@H]1C[C@H](O)C=C2C=C[C@H](C)[C@H](CC[C@@H](O)C[C@@H](O)CC(=O)O)[C@H]21 [Pravastatin] (100 nM) was tested. Which normalised response did it give?
Answer: 95.7%

Question: How did the normalised response turn out when C[C@H]1C[C@@H]2[C@H]([C@@H](O)C[C@@]3(C)[C@H]2CC[C@]3(O)C(=O)CO)[C@@]2(C)C=CC(=O)C=C12 [Methylprednisolone] (100 nM) was run?
Answer: 108%

system: HCC1143; assay: as above; conditions: incubation time: 72 h
Description: as §1

Question: Which normalised response does the source give for CCc1cncnc1N1CCN(Cc2nc3ccc(C(F)(F)F)cc3[nH]2)CC1 (100 nM) here?
Answer: 107%

Question: COc1cc2nccc(Oc3ccc(NC(=O)Nc4cc(C)on4)c(Cl)c3)c2cc1OC [Tivozanib] (100 nM) was tested. Which normalised response did it give?
Answer: 102%

Question: For O=C(O)C(=O)O.[NH-][C@@H]1CCCC[C@H]1[NH-].[Pt+2] [Oxaliplatin] (100 nM), which normalised response is on record?
Answer: 99%

Question: How did the normalised response turn out when CC1=C(/C=C/C(C)=C/C=C/C(C)=C/C(=O)O)C(C)(C)CCC1 [Tretinoin] (100 nM) was run?
Answer: 97.4%

Question: Oc1ncc(N(CCCl)CCCl)c(O)n1 [Uracil mustard] (100 nM) was tested. Which normalised response did it give?
Answer: 100%

Question: Which normalised response does the source give for COc1cc2c(NC3CCN(C(C)C)CC3)nc(C3CCCCC3)nc2cc1OCCCN1CCCC1 [UNC0638] (100 nM) here?
Answer: 100%
